The source of these data is ChEMBL document CHEMBL3734680, “Synthesis and relationship of stability and biological activity of new DSS and TMP conjugates” (Medchemcomm, 2015).

Calls of active or inactive are those of the source. The rule behind the calls is not given here.

One series relates to carboxyesterase. Nature of the series: Half life of compound assessed as carboxyesterase (unknown origin)-mediated drug degradation at 0.655 x 10^3 uM by HPLC analysis. It counts as ADME. The note with it: human.
Series [1] deals with H9c2. Nature of the series: Cardioprotective activity against t-BHP-induced injury in rat H9c2 cells preincubated for 1 hr followed by t-BHP challenge for 12 hrs by MTT assay. It counts as functional, cell-based. On the technique in general: Tetrazolium assays rely on reduction of a dye to a coloured formazan, in cell work by metabolically active cells.
Series [2] has as its system H9c2. Kind of series: Induction of mitochondrial biogenesis in rat H9c2 cells assessed as upregulation of Tfam mRNA expression at 30 uM after 24 hrs by RT-PCR analysis relative to control. Type of series: functional, cell-based.
Series [3] deals with H9c2. Nature of the series: Cardioprotective activity against doxorubicin-induced injury in rat H9c2 cells assessed as inhibition of LDH leakage preincubated for 1 hr followed by doxorubicin challenge for 24 hrs. It counts as functional, cell-based. A general note: LDH leaks from cells whose membrane has failed.
Series [4] has as its system H9c2. Kind of series: Induction of mitochondrial biogenesis in rat H9c2 cells assessed as mitochondrial DNA replication after 24 hrs by Mitotracker/DAPI/FITC-staining based immunofluorescence analysis relative to control. It counts as functional, cell-based.
Series [5] relates to H9c2. Nature of the series: Cardioprotective activity against doxorubicin-induced injury in rat H9c2 cells preincubated for 1 hr followed by doxorubicin challenge for 24 hrs by MTT assay. Type of series: functional, cell-based.
Series [6] concerns H9c2. Nature of the series: Induction of mitochondrial biogenesis in rat H9c2 cells assessed as upregulation of PGC-1beta mRNA expression at 30 uM after 24 hrs by RT-PCR analysis relative to control. Type of series: functional, cell-based.

Consider `CC(=O)Oc1ccc(CC(OC(C)=O)C(=O)OCc2nc(C)c(C)nc2C)cc1OC(C)=O` (stereo not drawn), for which the half-life (in general, how long it takes for the measured level to halve) with carboxyesterase turned out to be 10.3 min. Moreover, the outcome with H9c2 [1] was Active.

On to `C=CCC(OC(=O)[C@@H](Cc1ccc(OC(C)=O)c(OC(C)=O)c1)OC(C)=O)c1nc(C)c(C)nc1C` (stereo partly drawn), for which, in the series on carboxyesterase, the half-life turned out to be 11.3 min. Also, in the series on H9c2 [1], the outcome was Active.

With `C=CCC(CC=C)(OC(=O)[C@@H](Cc1ccc(OC(C)=O)c(OC(C)=O)c1)OC(C)=O)c1nc(C)c(C)nc1C`, the result in the series with H9c2 [2], in the series with H9c2 [4], with H9c2 [1] and in the series on H9c2 [6] was Active. In addition, the Activity result with H9c2 [3] and in the series on H9c2 [5] was “Dose-dependent effect” in each case. In addition, the half-life in the series with carboxyesterase was 20.5 min.

As to `CC(=O)Oc1ccc(C[C@@H](OC(C)=O)C(=O)OC(C)c2nc(C)c(C)nc2C)cc1OC(C)=O` (stereo partly drawn), the half-life with carboxyesterase worked out at 10.6 min. Besides, the result in the series with H9c2 [1] was Active.
